# According to patent US10758534B2 (Vertex Pharmaceuticals Incorporated, priority 2014, dated 2020):
# Biological target: T1, F508del (Homo sapiens, UniProt P13569, DEL508-508)
# T1 construct: expressed in transfected cells
# Assay: Protocol 2: FRET membrane potential optical assay (VIPR), identification of correction compounds
# Assay type: cell-based
# Settings: F508del CFTR modulator activity; compounds of Table 1; read-out: EC30
# Method in brief: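 Correction of the F508del trafficking defect is scored as forskolin (10 μM)/genistein (20 μM)-stimulated Cl^− efflux in NIH3T3 mouse fibroblasts after a 16 hr, 37° C. compound exposure. Depolarization was followed optically using voltage-sensing FRET dyes.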
# T1 sequence (P13569 with tags, fused parts or gaps DEL508-508): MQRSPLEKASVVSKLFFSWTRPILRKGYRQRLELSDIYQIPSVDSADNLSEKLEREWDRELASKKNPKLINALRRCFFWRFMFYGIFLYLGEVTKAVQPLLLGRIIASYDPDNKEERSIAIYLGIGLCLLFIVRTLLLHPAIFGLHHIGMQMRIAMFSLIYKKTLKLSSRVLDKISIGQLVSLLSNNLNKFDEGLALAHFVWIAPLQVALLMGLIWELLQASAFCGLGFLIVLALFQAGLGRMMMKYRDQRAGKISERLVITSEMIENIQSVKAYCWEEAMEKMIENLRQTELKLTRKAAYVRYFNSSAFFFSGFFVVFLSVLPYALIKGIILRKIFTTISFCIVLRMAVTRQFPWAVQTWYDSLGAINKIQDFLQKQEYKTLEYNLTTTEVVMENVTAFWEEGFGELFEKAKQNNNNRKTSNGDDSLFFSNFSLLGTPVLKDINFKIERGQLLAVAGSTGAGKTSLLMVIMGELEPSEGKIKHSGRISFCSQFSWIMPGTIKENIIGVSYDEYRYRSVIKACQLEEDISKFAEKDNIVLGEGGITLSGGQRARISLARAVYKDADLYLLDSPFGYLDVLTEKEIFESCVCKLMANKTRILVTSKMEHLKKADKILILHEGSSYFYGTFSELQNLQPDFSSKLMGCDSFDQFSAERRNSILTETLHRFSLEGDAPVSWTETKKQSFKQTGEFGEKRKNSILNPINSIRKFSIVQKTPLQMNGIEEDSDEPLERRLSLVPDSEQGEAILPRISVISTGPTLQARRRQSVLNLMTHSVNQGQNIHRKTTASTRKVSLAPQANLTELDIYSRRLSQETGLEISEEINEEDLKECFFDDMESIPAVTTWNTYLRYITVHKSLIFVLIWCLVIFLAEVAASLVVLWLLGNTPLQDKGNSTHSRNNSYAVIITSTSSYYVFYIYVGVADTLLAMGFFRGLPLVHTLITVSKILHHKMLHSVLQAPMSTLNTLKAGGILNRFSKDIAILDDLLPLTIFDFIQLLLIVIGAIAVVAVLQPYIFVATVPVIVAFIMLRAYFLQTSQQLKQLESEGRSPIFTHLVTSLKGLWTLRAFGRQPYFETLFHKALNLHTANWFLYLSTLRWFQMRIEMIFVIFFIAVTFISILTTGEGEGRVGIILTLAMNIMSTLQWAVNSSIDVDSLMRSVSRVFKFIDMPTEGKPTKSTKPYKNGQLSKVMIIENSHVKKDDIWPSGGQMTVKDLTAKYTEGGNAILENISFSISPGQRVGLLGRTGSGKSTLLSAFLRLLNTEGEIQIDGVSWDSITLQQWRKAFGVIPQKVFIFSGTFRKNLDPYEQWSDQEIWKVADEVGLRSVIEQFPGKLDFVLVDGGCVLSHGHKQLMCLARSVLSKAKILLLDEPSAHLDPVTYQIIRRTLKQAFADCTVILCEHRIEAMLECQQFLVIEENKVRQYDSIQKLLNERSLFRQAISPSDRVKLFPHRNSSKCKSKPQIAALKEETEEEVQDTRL
row,SMILES,EC30 [nM]
1,"CC[C@@H](C)Oc1ncc(-c2ccc(C(=O)NS(=O)(=O)c3cccc(N)n3)c(N3C[C@@H](C)CC3(C)C)n2)cc1C [Compound 2576, N-[(6-amino-2-pyridyl)sulfonyl]-6-[5-methyl-6-[(1R)-1-methylpropoxy]-3-pyridyl]-2-[(4S)-2,2,4-trimethylpyrrolidin-1-yl]pyridine-3-carboxamide]",< 3000
2,"Cc1cccc(-c2ccc(C(=O)NS(=O)(=O)N3CC[C@H](N)C3)c(N3C[C@@H](C)CC3(C)C)n2)c1 [Compound 2339, N-[(3S)-3-aminopyrrolidin-1-yl]sulfonyl-6-(m-tolyl)-2-[(4S)-2,2,4-trimethylpyrrolidin-1-yl]pyridine-3-carboxamide]",< 3000
3,"C[C@@H]1CN(c2nc(-c3ccc(OC(F)(F)F)cc3)ccc2C(=O)NS(=O)(=O)c2ccc[nH]c2=O)C(C)(C)C1 [Compound 2234, N-[(2-oxo-1H-pyridin-3-yl)sulfonyl]-6-[4-(trifluoromethoxy)phenyl]-2-[(4S)-2,2,4-trimethylpyrrolidin-1-yl]pyridine-3-carboxamide]",< 3000
4,"COc1ccc(COc2cccc(S(=O)(=O)NC(=O)c3cccnc3N3CC(C)CC3(C)C)n2)cc1 (stereo not shown) [Compound 2428, N—[[6-[(4-methoxyphenyl)methoxy]-2-pyridyl]sulfonyl]-2-(2,2,4-trimethylpyrrolidin-1-yl)pyridine-3-carboxamide]",< 3000
5,"COc1ccc(-c2ccc(C(=O)NS(=O)(=O)c3cccnc3N)c(N3C[C@@H](C)CC3(C)C)n2)c(F)c1F [Compound 2302, N-[(2-amino-3-pyridyl)sulfonyl]-6-(2,3-difluoro-4-methoxy-phenyl)-2-[(4S)-2,2,4-trimethylpyrrolidin-1-yl]pyridine-3-carboxamide]",< 3000
6,"C[C@@H]1CN(c2nc([C@H]3CC[C@@H](C(F)(F)F)CC3)ccc2C(=O)NS(=O)(=O)c2ccc[nH]c2=O)C(C)(C)C1 [Compound 2315, N-[(2-oxo-1H-pyridin-3-yl)sulfonyl]-6-[4-(trifluoromethyl)cyclohexyl]-2-[(4S)-2,2,4-trimethylpyrrolidin-1-yl]pyridine-3-carboxamide]",< 3000
7,"COc1cccc(-c2ccc(C(=O)NS(=O)(=O)c3ccc[nH]c3=O)c(N3C[C@@H](C)CC3(C)C)n2)c1F [Compound 2222, 6-(2-fluoro-3-methoxy-phenyl)-N-[(2-oxo-1H-pyridin-3-yl)sulfonyl]-2-[(4S)-2,2,4-trimethylpyrrolidin-1-yl]pyridine-3-carboxamide]",3000 to 10000
8,"Cc1cc(-c2ccc(C(=O)NS(=O)(=O)c3cccc(N)n3)c(N3C[C@@H](C)CC3(C)C)n2)ccc1OC(F)F [Compound 2543, N-[(6-amino-2-pyridyl)sulfonyl]-6-[4-(difluoromethoxy)-3-methyl-phenyl]-2-[(4S)-2,2,4-trimethylpyrrolidin-1-yl]pyridine-3-carboxamide]",< 3000
9,"CC1(C)C(Cc2ccccc2)CCN1c1ncccc1C(=O)NS(=O)(=O)c1cccc(N)n1 (stereo not shown) [Compound 2275, N-[(6-amino-2-pyridyl)sulfonyl]-2-(3-benzyl-2,2-dimethyl-pyrrolidin-1-yl)pyridine-3-carboxamide]",3000 to 10000

# Same assay, conditions: Table 3; compounds of Table 1 as modulators of CFTR activity; protocol not stated
row,SMILES,EC30
1,"CC(C)(C)c1cc(C(=O)NS(=O)(=O)c2ccccc2)n(Cc2cc(C(F)(F)F)ccc2F)n1 [Compound 35, N-(benzenesulfonyl)-5-tert-butyl-2-[[2-fluoro-5-(trifluoromethyl)phenyl]methyl]pyrazole-3-carboxamide]",+++ (“+++” means <3 uM)
2,"COc1cccc2c1cc(C(=O)NS(=O)(=O)c1ccccc1)n2Cc1c(C)cccc1C [Compound 290, N-(benzenesulfonyl)-1-[(2,6-dimethylphenyl)methyl]-4-methoxy-indole-2-carboxamide]",+++ (“+++” means <3 uM)
3,"CC(C)(C)c1ccc(-c2nc(C(C)(C)C)ccc2C(=O)NS(=O)(=O)c2cccc(N)c2)cc1 [Compound 252, N-(3-aminophenyl)sulfonyl-6-tert-butyl-2-(4-tert-butylphenyl)pyridine-3-carboxamide]",+++ (“+++” means <3 uM)
4,"C[C@@H]1CC[C@H](C)N1c1nc(C(C)(C)C)ccc1C(=O)NS(=O)(=O)c1cccc(N)n1 [Compound 373, N-[(6-amino-2-pyridyl)sulfonyl]-6-tert-butyl-2-[(2S,5R)-2,5-dimethylpyrrolidin-1-yl]pyridine-3-carboxamide]",++ (“++” means between 3 uM and 10 uM)
5,"Cc1ccc(-c2nc3c(cc2C(=O)NS(=O)(=O)c2ccc(N)nc2)CCCC3(C)C)cc1 [Compound 635, N-[(6-amino-3-pyridyl)sulfonyl]-8,8-dimethyl-2-(p-tolyl)-6,7-dihydro-5H-quinoline-3-carboxamide]",+ (“+” means greater than 10 uM)
6,"Cc1cccc(C)c1Cn1nc(-c2ccsc2)cc1C(=O)NS(=O)(=O)c1ccccc1 [Compound 357, N-(benzenesulfonyl)-2-[(2,6-dimethylphenyl)methyl]-5-(3-thienyl)pyrazole-3-carboxamide]",++ (“++” means between 3 uM and 10 uM)
7,"CC(C)(C)c1ccc(C(=O)NS(=O)(=O)c2cccc(N)c2)c(-c2ccccc2)n1 [Compound 542, N-(3-aminophenyl)sulfonyl-6-tert-butyl-2-phenyl-pyridine-3-carboxamide]",+++ (“+++” means <3 uM)
8,"Cc1cc(C)c(CN2CCc3ccccc3CC2C(=O)NS(=O)(=O)c2ccc[nH]c2=O)c(C)c1 (stereo not shown) [Compound 662, N-[(2-oxo-1H-pyridin-3-yl)sulfonyl]-3-[(2,4,6-trimethylphenyl)methyl]-1,2,4,5-tetrahydro-3-benzazepine-4-carboxamide]",+ (“+” means greater than 10 uM)
9,"Cc1cc(C)c(Oc2nc(C(C)(C)C)ccc2C(=O)NS(=O)(=O)c2cccc(C(F)F)n2)c(C)c1 [Compound 501, 6-tert-butyl-N-[[6-(difluoromethyl)-2-pyridyl]sulfonyl]-2-(2,4,6-trimethylphenoxy)pyridine-3-carboxamide]",+++ (“+++” means <3 uM)
10,"CC(C)COc1cc(F)cc(-c2ccc(C(=O)NS(=O)(=O)c3ccn[nH]3)c(N3CCCCC3C)n2)c1 (stereo not shown) [Compound 442, 6-(3-fluoro-5-isobutoxy-phenyl)-2-(2-methyl-1-piperidyl)-N-(1H-pyrazol-5-ylsulfonyl)pyridine-3-carboxamide]",+++ (“+++” means <3 uM)
11,"Cc1cc(C(=O)NS(=O)(=O)c2cccc(N)n2)c(N2[C@H](C)CC[C@@H]2C)nc1-c1ccc(OC(C)C)nc1 [Compound 486, N-[(6-amino-2-pyridyl)sulfonyl]-2-[(2R,5S)-2,5-dimethylpyrrolidin-1-yl]-6-(6-isopropoxy-3-pyridyl)-5-methyl-pyridine-3-carboxamide]",++ (“++” means between 3 uM and 10 uM)
12,"Cc1cc(C)c(CN2Cc3c(C(C)C)cccc3C2C(=O)NS(=O)(=O)c2ccc[nH]c2=O)c(C)c1 (stereo not shown) [Compound 103, 4-isopropyl-N-[(2-oxo-1H-pyridin-3-yl)sulfonyl]-2-[(2,4,6-trimethylphenyl)methyl]isoindoline-1-carboxamide]",+++ (“+++” means <3 uM)
13,"COc1cccc(S(=O)(=O)NC(=O)c2cc3ccccc3n2Cc2c(C)cc(C)cc2C)c1 [Compound 335, N-(3-methoxyphenyl)sulfonyl-1-[(2,4,6-trimethylphenyl)methyl]indole-2-carboxamide]",+++ (“+++” means <3 uM)
